Reference: US6818663B2, “Diaminothiazoles” (Hoffmann-La Roches, priority 2002, dated 2004)

Columns and labels:
human cyclin B-CDK1 = human cyclin B-CDK1 (Homo sapiens, UniProt P06493); assay: FlashPlate kinase assay, cyclin B-CDK1, Rb substrate; assay type: biochemical; conditions: recombinant cyclin B-CDK1, Rb phosphorylation, 1 μM ATP
Description: (§1) To determine inhibition of Cdk4, Cdk2 and Cdk1 activity, kinase assays were conducted using FlashPlate™ assays (NEN™-Life Science Products). FlashPlate assays were performed using recombinant human cyclin B-CDK1, human cyclin E-CDK2 or human cyclin D1-CDK4 complexes. GST-cyclinE (GST-cycE), CDK2, GST-cyclinB (GST-cycB), CDK1, GST-CDK4 and cyclin D1 (cycD1) cDNA clones in baculovirus vectors were provided by Dr. W. Harper at the Baylor College of Medicine, Houston, Tex. Proteins were co-expressed in High Five™ insect cells and the complex was purified on glutathione Sepharose resin (Pharmacia, Piscataway, N.J.) as previously described (Harper, J. W. et al. Cell 1993, 75, 805-816). A 6×-Histidine tagged truncated form of retinoblastoma (Rb) protein (amino acid 386-928) was used as the substrate for the cycD1-CDK4, cycB-CDK1 and the cycE-CDK2 assays (the expression plasmid was provided by Dr. Veronica Sullivan, Department of Molecular Virology, Roche Research Centre, Welwyn Garden City, United Kingdom). The Rb protein is a natural substrate for phosphorylation by CDK4, CDK2 and CDK1 (see Herwig and Strauss Eur. J. Biochem. Vol. 246 (1997) pp. 581-601 and the references cited therein).
(§2) The expression of the 62 Kd protein was under the control of an IPTG inducible promoter in an M15 E. coli strain. Cells were lysed by sonication and purification was carried out by binding lysates at pH 8.0 to a Ni-chelated agarose column pretreated with 1 mM imidazole. The resin was then washed several times with incrementally decreasing pH buffers to pH 6.0, and eluted with 500 mM imidazole. Eluted protein was dialysed against 20 mM HEPES pH 7.5, 30% glycerol, 200 mM NaCl, and 1 mM DTT. Purified Rb fusion protein stocks were quantitated for protein concentration, aliquoted, and stored at −70° C.
(§3) For all three kinase assays reported herein, 96-well FlashPlates were coated with Rb protein at 10 μg/ml, using 100 μl per well. Plates were incubated at 4° C. overnight or at room temperature for 3 hours on a shaker. To control for nonspecific phosphorylation, one row of wells was coated with 100 μl/well coating buffer (20 mM HEPES, 0.2 M NaCl). Plates were then washed twice with wash buffer (0.01% Tween 20 in phosphate-buffered saline). Compounds to be tested (“test compounds”) were added to the wells at 5×final concentration. Reactions were initiated by immediate addition of 40 μl reaction mix (25 mM HEPES, 20 mM MgCl2, 0.002% Tween 20, 2 mM DTT, 1 μM ATP, 4 nM ^33P-ATP) and a sufficient amount of enzyme to give counts that were at least 10-fold above background. Plates were incubated at room temperature on a shaker for 30 minutes. Plates were washed four times with the wash buffer, sealed, and counted on the TopCount scintillation counter (Packard Instrument Co., Downers Grove, Ill.]. The percent inhibition of Rb phosphorylation, which is a measure of the inhibition of CDK activity, was determined according to the following formula: [formula]
(§4) where “test compound” refers to the average counts per minute of the test duplicates, “nonspecific” refers to the average counts per minute when no CyclinD/Cdk4, etc., was added, and “total” refers to the average counts per minute when no compound was added. The IC50 value is the concentration of test compound that reduces by 50% the protein-kinase induced incorporation of the radiolabel under the test conditions described.

human cyclin E-CDK2 = human cyclin E-CDK2 (Homo sapiens, UniProt P24941); assay: FlashPlate kinase assay, cyclin E-CDK2, Rb substrate; assay type: biochemical; conditions: recombinant cyclin E-CDK2, Rb phosphorylation, 1 μM ATP
Description: as §1, §2, §3, §4

human cyclin D1-CDK4 = human cyclin D1-CDK4 (Homo sapiens, UniProt P11802); assay: FlashPlate kinase assay, cyclin D1-CDK4, Rb substrate; assay type: biochemical; conditions: recombinant cyclin D1-CDK4, Rb phosphorylation, 1 μM ATP
Description: as §1, §2, §3, §4

[1] = tested on: HCT116, a colorectal carcinoma cell line; assay: Tetrazolium dye proliferation assay (MTT assay); assay type: cell-based; conditions: Homo sapiens, HCT-116, HCT116 cells, inhibition of cell proliferation
Description: Proliferation was evaluated by the tetrazolium dye assay according to the procedure of Denizot and Lang (Denizot, F. and Lang, R. J Immunol Methods 1986, 89, 271-277). The cell line used was HCT116, a colorectal carcinoma cell line obtained from the American Type Cell Culture Collection (ATCC; Rockville, Md.). The cells were grown in McCoy's 5A medium supplemented with 10% FCS and L-glutamine.
Cells were plated at the appropriate seeding density to give logarithmic growth over the course of the assay in a 96-well tissue culture plate. Plates were incubated overnight at 37° C. in a humidified incubator with 5% CO2. The next day, test compounds were serially diluted to four times the final concentration in the appropriate medium containing 1.2% DMSO. One-fourth final volume of each dilution was added in duplicate to the plates containing cells. The same volume of 1.2% DMSO in medium was added to a row of “control wells” such that the final concentration of DMSO in each well was 0.3%. Wells to which no cells were added served as the “blank.” Wells to which no inhibitor was added served as “no inhibitor control.” The plates were) returned to the incubator, and at set time points (determined by their growth curves) plates were analyzed as described below.
3-(4,5-dimethylthiazole-2-yl)-2,5-diphenyl-2H-tetrazolium bromide (thiazolyl blue; MTT; Sigma) was added to each well to yield a final concentration of 1 mg/ml. Plates were returned to the incubator for 2.5-3 hours at 37° C. The MTT-containing medium was removed and the resulting formazan metabolite was solubilized in 100% ethanol with shaking for 15 minutes at room temperature. Absorbance readings were taken in a microtiter plate reader (Dynatech and Molecular Devices plate readers were used interchangeably) at a wavelength of 570 nm with a 650 nm reference. Percent inhibition (% INH) is calculated by subtracting the absorbance of the blank well from all wells, then subtracting the ratio of the average absorbance of each test duplicate (SAVE) by the average of the controls (CAVE) from 1.00. The final number is then multiplied by 100 (% INH=(1.00−SAVE/CAVE)×100). The concentration at which 50% inhibition of cell proliferation is obtained (the IC50) is determined from the linear regression of a plot of the logarithm of the concentration versus percent inhibition.

human cyclin D1-CDK4, sequence (P11802 whole entry): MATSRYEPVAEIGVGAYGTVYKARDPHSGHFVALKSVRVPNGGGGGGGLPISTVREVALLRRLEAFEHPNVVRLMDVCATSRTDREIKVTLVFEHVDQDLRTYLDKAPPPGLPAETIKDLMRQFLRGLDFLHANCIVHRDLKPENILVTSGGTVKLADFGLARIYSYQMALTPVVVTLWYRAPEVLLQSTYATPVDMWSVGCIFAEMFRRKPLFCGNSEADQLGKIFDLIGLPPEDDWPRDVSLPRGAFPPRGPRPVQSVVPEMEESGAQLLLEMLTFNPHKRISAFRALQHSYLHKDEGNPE
human cyclin D1-CDK4, sequence (P24385 whole entry partner): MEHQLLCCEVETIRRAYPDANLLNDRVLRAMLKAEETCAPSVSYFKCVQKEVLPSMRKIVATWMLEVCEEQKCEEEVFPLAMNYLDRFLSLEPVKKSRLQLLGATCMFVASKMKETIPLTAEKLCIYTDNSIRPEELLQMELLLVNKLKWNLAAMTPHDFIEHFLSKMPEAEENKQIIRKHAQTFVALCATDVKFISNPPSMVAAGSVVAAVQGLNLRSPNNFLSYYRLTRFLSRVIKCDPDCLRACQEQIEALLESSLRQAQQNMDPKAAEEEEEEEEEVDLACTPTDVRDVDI
human cyclin B-CDK1, sequence (P06493 whole entry): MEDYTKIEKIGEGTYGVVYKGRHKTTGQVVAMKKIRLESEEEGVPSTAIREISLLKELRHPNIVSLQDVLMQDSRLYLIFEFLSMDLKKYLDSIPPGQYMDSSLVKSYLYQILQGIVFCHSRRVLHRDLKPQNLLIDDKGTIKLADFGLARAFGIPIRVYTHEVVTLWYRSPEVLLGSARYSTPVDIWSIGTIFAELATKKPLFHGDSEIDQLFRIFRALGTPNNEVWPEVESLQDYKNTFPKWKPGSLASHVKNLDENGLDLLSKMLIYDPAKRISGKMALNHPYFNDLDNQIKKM
human cyclin B-CDK1, sequence (P14635 whole entry partner): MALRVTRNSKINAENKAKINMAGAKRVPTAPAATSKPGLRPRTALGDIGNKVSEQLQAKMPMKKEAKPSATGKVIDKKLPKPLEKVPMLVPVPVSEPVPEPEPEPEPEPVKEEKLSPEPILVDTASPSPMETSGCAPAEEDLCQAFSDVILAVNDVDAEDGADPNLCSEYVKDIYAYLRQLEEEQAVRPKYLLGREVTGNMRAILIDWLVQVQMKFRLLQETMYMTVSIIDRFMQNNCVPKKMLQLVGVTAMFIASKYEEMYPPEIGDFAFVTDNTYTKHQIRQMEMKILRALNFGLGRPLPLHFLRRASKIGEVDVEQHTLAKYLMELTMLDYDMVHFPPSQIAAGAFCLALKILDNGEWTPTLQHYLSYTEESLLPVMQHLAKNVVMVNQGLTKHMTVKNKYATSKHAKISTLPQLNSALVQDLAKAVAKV

C[C@H](COc1ccc(Nc2nc(N)c(C(=O)c3cccc(F)c3)s2)cc1)N(C)C [Example 40, (R)-[4-Amino-2-[4-(2-dimethylamino-propoxy)-phenylamino]-thiazol-5-yl]-(3-fluoro-phenyl)-methanone]
IC50 (human cyclin B-CDK1): 581 nM
IC50 (human cyclin E-CDK2): 1010 nM
IC50 (human cyclin D1-CDK4): 87 nM
IC50 [1]: 346 nM

C[C@H](COc1ccc(Nc2nc(N)c(C(=O)c3cccc(F)c3)s2)cc1)N1CCCC1 [Example 41, (R)-[4-Amino-2-[4-(2-pyrrolidin-1-yl-propoxy)-phenylamino]-thiazol-5-yl]-(3-fluoro-phenyl)-methanone]
IC50 (human cyclin B-CDK1): 435 nM
IC50 (human cyclin E-CDK2): 1040 nM
IC50 (human cyclin D1-CDK4): 63 nM
IC50 [1]: 669 nM

CCN1CCC(Oc2ccc(Nc3nc(N)c(C(=O)c4cccc(F)c4)s3)cc2)C1 (centres unmarked) [Example 42, [4-Amino-2-[4-(1-ethyl-pyrrolidin-3-yloxy)-phenylamino]-thiazol-5-yl]-(3-fluoro-phenyl)-methanone]
IC50 (human cyclin B-CDK1): 298 nM
IC50 (human cyclin E-CDK2): 496 nM
IC50 (human cyclin D1-CDK4): 57 nM
IC50 [1]: 859 nM

CCN1CCCC(Oc2ccc(Nc3nc(N)c(C(=O)c4cccc(F)c4)s3)cc2)C1 (centres unmarked) [Example 43, [4-Amino-2-[4-(1-ethyl-piperidin-3-yloxy)-phenylamino]-thiazol-5-yl]-(3-fluoro-phenyl)-methanone]
IC50 (human cyclin B-CDK1): 700 nM
IC50 (human cyclin E-CDK2): 1150 nM
IC50 (human cyclin D1-CDK4): 59 nM
IC50 [1]: 760 nM

CN1CCC[C@H]1COc1ccc(Nc2nc(N)c(C(=O)c3cccc(F)c3)s2)cc1 [Example 44, (S)-[4-Amino-2-[4-(1-methyl-pyrrolidin-2-ylmethoxy)-phenylamino]-thiazol-5-yl]-(3-fluoro-phenyl)-methanone]
IC50 (human cyclin B-CDK1): 594 nM
IC50 (human cyclin E-CDK2): 1270 nM
IC50 (human cyclin D1-CDK4): 65 nM
IC50 [1]: 390 nM

Nc1nc(Nc2ccc(OC3CCNC3)cc2)sc1C(=O)c1cccc(F)c1 (centres unmarked) [Example 45, [4-Amino-2-[4-(pyrrolidin-3-yloxy)-phenylamino]-thiazol-5-yl]-(3-fluoro-phenyl)-methanone]
IC50 (human cyclin B-CDK1): 158 nM
IC50 (human cyclin E-CDK2): 589 nM
IC50 (human cyclin D1-CDK4): 39 nM
IC50 [1]: 1240 nM

Cc1cccc(C(=O)c2sc(Nc3ccc(OCCN(C)C)cc3)nc2N)c1 [Example 50, [4-Amino-2-[4-(2-dimethylamino-ethoxy)-phenylamino]-thiazol-5-yl]-m-tolyl-methanone]
IC50 (human cyclin B-CDK1): 1700 nM
IC50 (human cyclin E-CDK2): 3360 nM
IC50 (human cyclin D1-CDK4): 60 nM
IC50 [1]: 1040 nM

Cc1cccc(C(=O)c2sc(Nc3ccc(OCCN4CCCC4)cc3)nc2N)c1 [Example 51, [4-Amino-2-[4-(2-pyrrolidin-1-yl-ethoxy)-phenylamino]-thiazol-5-yl]-m-tolyl-methanone]
IC50 (human cyclin B-CDK1): 1060 nM
IC50 (human cyclin E-CDK2): 2930 nM
IC50 (human cyclin D1-CDK4): 53 nM
IC50 [1]: 614 nM

CCc1cccc(C(=O)c2sc(Nc3ccc(OCCN(C)C)cc3)nc2N)c1 [Example 52, [4-Amino-2-[4-(2-dimethylamino-ethoxy)-phenylamino]-thiazol-5-yl]-(3-ethyl-phenyl)-methanone]
IC50 (human cyclin B-CDK1): 3230 nM
IC50 (human cyclin E-CDK2): 1210 nM
IC50 (human cyclin D1-CDK4): 27 nM
IC50 [1]: 526 nM

CCc1cccc(C(=O)c2sc(Nc3ccc(OCCN4CCCC4)cc3)nc2N)c1 [Example 53, [4-Amino-2-[4-(2-pyrrolidin-1-yl-ethoxy)-phenylamino]-thiazol-5-yl]-(3-ethyl-phenyl)-methanone]
IC50 (human cyclin B-CDK1): 2990 nM
IC50 (human cyclin E-CDK2): 930 nM
IC50 (human cyclin D1-CDK4): 22 nM
IC50 [1]: 402 nM

CN(C)CCOc1ccc(Nc2nc(N)c(C(=O)c3cccc([N+](=O)[O-])c3)s2)cc1 [Example 54, [4-Amino-2-[4-(2-dimethylamino-ethoxy)-phenylamino]-thiazol-5-yl]-(3-nitro-phenyl)-methanone]
IC50 (human cyclin B-CDK1): 381 nM
IC50 (human cyclin E-CDK2): 1240 nM
IC50 (human cyclin D1-CDK4): 36 nM
IC50 [1]: 1640 nM

Nc1nc(Nc2ccc(OCCN3CCCC3)cc2)sc1C(=O)c1ccc2c(c1)OCO2 [Example 57, [4-Amino-2-[4-(2-pyrrolidin-1-yl-ethoxy)-phenylamino]-thiazol-5-yl]-benzo[1,3]dioxol-5-yl-methanone]
IC50 (human cyclin B-CDK1): 376 nM
IC50 (human cyclin E-CDK2): 4890 nM
IC50 (human cyclin D1-CDK4): 66 nM
IC50 [1]: 2920 nM

CCc1cccc(C(=O)c2sc(Nc3ccc(OCC(C)(C)N(C)C)cc3)nc2N)c1 [Example 61, [4-Amino-2-[4-(2-dimethylamino-2-methyl-propoxy)-phenylamino]-thiazol-5-yl]-(3-ethyl-phenyl)-methanone]
IC50 (human cyclin B-CDK1): 1210 nM
IC50 (human cyclin E-CDK2): 1560 nM
IC50 (human cyclin D1-CDK4): 46 nM
IC50 [1]: 954 nM

CCOc1cccc(C(=O)c2sc(Nc3ccc(OCCN4CCCC4)cc3)nc2N)c1 [Example 62, [4-Amino-2-[4-(2-pyrrolidin-1-yl-ethoxy)-phenylamino]-thiazol-5-yl]-(3-ethoxy-phenyl)-methanone]
IC50 (human cyclin B-CDK1): 1810 nM
IC50 (human cyclin E-CDK2): 4440 nM
IC50 (human cyclin D1-CDK4): 33 nM
IC50 [1]: 1300 nM

CCc1cccc(C(=O)c2sc(Nc3ccc(OC[C@@H](C)N(C)C)cc3)nc2N)c1 [Example 63, (R)-[4-Amino-2-[4-(2-dimethylamino-propoxy)-phenylamino]-thiazol-5-yl]-(3-ethyl-phenyl)-methanone]
IC50 (human cyclin B-CDK1): 2570 nM
IC50 (human cyclin E-CDK2): 1900 nM
IC50 (human cyclin D1-CDK4): 80 nM
IC50 [1]: 623 nM

CN(C)CCOc1ccc(Nc2nc(N)c(C(=O)c3cccc(Br)c3)s2)cc1 [Example 65, [4-Amino-2-[4-(2-dimethylamino-ethoxy)-phenylamino]-thiazol-5-yl]-(3-bromo-phenyl)-methanone]
IC50 (human cyclin B-CDK1): 1070 nM
IC50 (human cyclin E-CDK2): 1690 nM
IC50 (human cyclin D1-CDK4): 85 nM
IC50 [1]: 3240 nM

CCc1cccc(C(=O)c2sc(Nc3ccc(OC[C@@H](C)N4CCCC4)cc3)nc2N)c1 [Example 67, (R)-[4-Amino-2-[4-(2-pyrrolidin-1-yl-propoxy)-phenylamino]-thiazol-5-yl]-(3-ethyl-phenyl)-methanone]
IC50 (human cyclin B-CDK1): 2760 nM
IC50 (human cyclin E-CDK2): 1480 nM
IC50 (human cyclin D1-CDK4): 70 nM
IC50 [1]: 846 nM
